Experimental data as given in article PMC7694178, “Poziotinib Inhibits the Efflux Activity of the ABCB1 and ABCG2 Transporters and the Expression of the ABCG2 Transporter Protein in Multidrug Resistant Colon Cancer Cells” (Cancers, 2020).

What was measured:
[1] = molecular target: T1, ABCB1 transporter (Homo sapiens, UniProt P08183)
[2] = molecular target: T2, ABCG2 transporter (Homo sapiens, UniProt Q9UNQ0); test: ATPase stimulation assay (ABCG2 expressed in High Five insect cells); supported by [3H]-mitoxantrone accumulation and efflux in S1-M1-80 cells; assay type: biochemical
T2 sequence (Q9UNQ0 1-655): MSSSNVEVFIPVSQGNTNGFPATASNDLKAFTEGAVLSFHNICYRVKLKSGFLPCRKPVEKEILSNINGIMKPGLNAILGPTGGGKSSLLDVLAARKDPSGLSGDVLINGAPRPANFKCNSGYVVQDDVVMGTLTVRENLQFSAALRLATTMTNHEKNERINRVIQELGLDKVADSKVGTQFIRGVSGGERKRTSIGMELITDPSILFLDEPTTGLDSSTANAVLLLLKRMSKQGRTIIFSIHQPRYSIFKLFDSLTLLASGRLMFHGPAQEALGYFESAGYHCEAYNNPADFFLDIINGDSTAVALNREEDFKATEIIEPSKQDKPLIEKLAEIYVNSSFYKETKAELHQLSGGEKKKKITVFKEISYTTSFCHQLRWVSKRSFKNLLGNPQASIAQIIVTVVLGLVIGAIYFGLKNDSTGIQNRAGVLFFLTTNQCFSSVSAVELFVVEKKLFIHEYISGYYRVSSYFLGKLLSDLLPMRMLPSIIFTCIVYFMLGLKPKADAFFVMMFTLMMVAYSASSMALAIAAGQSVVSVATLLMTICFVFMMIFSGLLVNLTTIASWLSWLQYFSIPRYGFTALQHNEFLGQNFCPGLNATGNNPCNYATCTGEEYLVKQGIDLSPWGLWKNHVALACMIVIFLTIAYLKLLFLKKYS

[3] = molecular target: T1, ABCB1 transporter; test: ATPase stimulation assay (ABCB1 expressed in High Five insect cells); supported by [3H]-paclitaxel accumulation and efflux in SW620/Ad300 cells; assay type: biochemical

T1 sequence (P08183 whole entry): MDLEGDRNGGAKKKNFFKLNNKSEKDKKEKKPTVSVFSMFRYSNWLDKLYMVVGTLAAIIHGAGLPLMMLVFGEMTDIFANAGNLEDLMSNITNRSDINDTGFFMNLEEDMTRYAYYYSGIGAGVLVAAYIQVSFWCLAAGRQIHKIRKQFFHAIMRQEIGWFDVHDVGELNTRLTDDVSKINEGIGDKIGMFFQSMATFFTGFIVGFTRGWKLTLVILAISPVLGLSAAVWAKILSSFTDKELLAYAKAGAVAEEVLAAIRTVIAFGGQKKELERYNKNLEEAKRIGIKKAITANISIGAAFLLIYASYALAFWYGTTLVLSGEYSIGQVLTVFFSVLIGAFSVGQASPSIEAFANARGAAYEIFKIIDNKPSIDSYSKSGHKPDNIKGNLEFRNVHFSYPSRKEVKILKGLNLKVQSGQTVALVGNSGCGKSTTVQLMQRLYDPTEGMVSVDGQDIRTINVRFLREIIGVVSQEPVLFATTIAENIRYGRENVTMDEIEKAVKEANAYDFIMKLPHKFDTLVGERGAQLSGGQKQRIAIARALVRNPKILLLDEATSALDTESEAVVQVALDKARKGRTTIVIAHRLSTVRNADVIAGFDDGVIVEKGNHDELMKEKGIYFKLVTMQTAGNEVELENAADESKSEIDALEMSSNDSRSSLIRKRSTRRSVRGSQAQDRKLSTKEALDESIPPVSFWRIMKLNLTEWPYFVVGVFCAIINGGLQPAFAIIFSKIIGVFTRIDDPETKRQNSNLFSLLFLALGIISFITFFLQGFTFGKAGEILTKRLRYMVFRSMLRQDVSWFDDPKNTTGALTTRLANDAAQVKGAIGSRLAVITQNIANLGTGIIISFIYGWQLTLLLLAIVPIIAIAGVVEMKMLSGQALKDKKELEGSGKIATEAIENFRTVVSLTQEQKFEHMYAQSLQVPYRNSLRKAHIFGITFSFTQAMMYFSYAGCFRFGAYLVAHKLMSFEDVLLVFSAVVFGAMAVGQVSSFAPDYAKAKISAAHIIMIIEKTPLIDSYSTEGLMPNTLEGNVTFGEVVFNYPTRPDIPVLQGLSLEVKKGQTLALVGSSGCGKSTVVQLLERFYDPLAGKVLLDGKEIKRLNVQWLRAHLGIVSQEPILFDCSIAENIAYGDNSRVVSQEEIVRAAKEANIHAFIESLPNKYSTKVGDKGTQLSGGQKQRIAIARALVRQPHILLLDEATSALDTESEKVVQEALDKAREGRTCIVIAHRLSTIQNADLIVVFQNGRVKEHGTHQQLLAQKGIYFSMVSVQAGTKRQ

| SMILES | radiolabelled substrate accumulation and efflux in SW620/Ad300 vs SW620 cells [1] | EC50 [2] [nM] | EC50 [3] [nM] |
| --- | --- | --- | --- |
| CC(=O)O[C@H]1C(=O)[C@@]2(C)[C@H]([C@H](OC(=O)c3ccccc3)[C@]3(O)C[C@H](OC(=O)[C@H](O)[C@@H](NC(=O)c4ccccc4)c4ccccc4)C(C)=C1C3(C)C)[C@]1(OC(C)=O)CO[C@@H]1C[C@@H]2O [paclitaxel] | overexpression of the ABCB1 transporter increases the efflux of the substrate, [^3H]-paclitaxel |  |  |
| C=CC(=O)N1CCC(Oc2cc3c(Nc4ccc(Cl)c(Cl)c4F)ncnc3cc2OC)CC1 [poziotinib] |  | 210 | 20 |
